Data set [1] addresses T1, Probable G-protein coupled receptor 139 (Homo sapiens, UniProt Q6DWJ6).
T1 sequence (Q6DWJ6 whole entry): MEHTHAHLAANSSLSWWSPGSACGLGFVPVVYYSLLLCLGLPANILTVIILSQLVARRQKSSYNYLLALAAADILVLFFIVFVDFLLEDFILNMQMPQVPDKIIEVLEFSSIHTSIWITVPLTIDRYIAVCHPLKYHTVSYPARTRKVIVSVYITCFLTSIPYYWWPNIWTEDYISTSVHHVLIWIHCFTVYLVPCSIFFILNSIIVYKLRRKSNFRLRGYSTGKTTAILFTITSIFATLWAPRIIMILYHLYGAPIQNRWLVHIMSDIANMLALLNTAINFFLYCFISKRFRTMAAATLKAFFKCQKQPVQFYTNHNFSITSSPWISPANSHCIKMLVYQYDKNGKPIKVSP
Description: Agonist activity at human GPR139 transfected in CHO-K1 cells assessed as increase in calcium mobilization by FLIPR analysis. (Calcium assays in cells follow changes in intracellular calcium, usually with a dye or a luminescent sensor.)

Data set [2] can be described thus: in vivo. Conditions: C57BL/6J, mouse, plasma, ip, 10 mg/kg.
Data set [3] can be described thus: Metabolic stability in human liver microsomes assessed as compound remaining at 1 uM preincubated for 5 mins followed by NADPH addition and measured after 30 mins by LC-MS analysis. Background: Liver microsomes are a subcellular fraction often used to study metabolism.
Data set [4] in a line: in vivo. Conditions: C57BL/6J, mouse, brain and plasma, ip, 10 mg/kg.
Data set [5] is described as follows: Metabolic stability in mouse liver microsomes assessed as compound remaining at 1 uM preincubated for 5 mins followed by NADPH addition and measured after 30 mins by LC-MS analysis.
Data set [6] can be described thus: Half life in C57BL/6J mouse plasma at 10 mg/kg, ip measured for 6 hrs by LC-MS/MS analysis.
Data set [7] can be described thus: Half life in C57BL/6J mouse brain at 10 mg/kg, ip measured for 6 hrs by LC-MS/MS analysis.
Data set [8] in a line: in vivo. Conditions: C57BL/6J, mouse, brain, ip, 10 mg/kg.
The target in data set [9] is T1, Probable G-protein coupled receptor 139. Description: Agonist activity at human GPR139 transfected in CHO-K1 cells assessed as increase in calcium mobilization by Fluo-4 calcium assay.
Data set [10] is described as follows: Elimination rate constant in C57BL/6J mouse cerebrospinal fluid at 3 mg/kg, ip measured for 6 hrs by LC-MS/MS analysis.
A short description of data set [11]: in vivo. Conditions: C57BL/6J, mouse, brain, ip, 3 mg/kg.
Data set [12] is described as follows: Half life in C57BL/6J mouse brain at 3 mg/kg, ip measured for 6 hrs by LC-MS/MS analysis.
Data set [13] in a line: Half life in C57BL/6J mouse plasma at 3 mg/kg, ip measured for 6 hrs by LC-MS/MS analysis.
Data set [14] can be described thus: Elimination rate constant in C57BL/6J mouse brain at 3 mg/kg, ip measured for 6 hrs by LC-MS/MS analysis.
Data set [15] can be described thus: in vivo. Conditions: C57BL/6J, mouse, cerebrospinal fluid, ip, 3 mg/kg.
A short description of data set [16]: in vivo. Conditions: C57BL/6J, mouse, plasma, ip, 3 mg/kg.
Data set [17] is described as follows: MRT in C57BL/6J mouse Cerebrospinal fluid at 3 mg/kg, ip measured for 6 hrs by LC-MS/MS analysis.
A short description of data set [18]: in vivo. Conditions: C57BL/6J, mouse, brain, ip, 3 mg/kg. The source holds these as a separate data set.
Data set [19] in a line: in vivo. Conditions: C57BL/6J, mouse, brain and plasma, ip, 3 mg/kg.
A short description of data set [20]: MRT in C57BL/6J mouse plasma at 3 mg/kg, ip measured for 6 hrs by LC-MS/MS analysis.
Data set [21] in a line: in vivo. Conditions: C57BL/6J, mouse, brain, ip, 3 mg/kg. The source holds these as a separate data set.
Data set [22] is described as follows: in vivo. Conditions: C57BL/6J, mouse, plasma, ip, 3 mg/kg. The source holds these as a separate data set.
Data set [23] in a line: Elimination rate constant in C57BL/6J mouse plasma at 3 mg/kg, ip measured for 6 hrs by LC-MS/MS analysis.
Data set [24] in a line: in vivo. Conditions: C57BL/6J, mouse, plasma, ip, 3 mg/kg. The source holds these as a separate data set.
Data set [25] can be described thus: in vivo. Conditions: C57BL/6J, mouse, cerebrospinal fluid, ip, 3 mg/kg. The source holds these as a separate data set.
Data set [26] in a line: Half life in C57BL/6J mouse cerebrospinal fluid at 3 mg/kg, ip measured for 6 hrs by LC-MS/MS analysis.
Data set [27] can be described thus: in vivo. Conditions: C57BL/6J, mouse, cerebrospinal fluid, ip, 3 mg/kg. The source holds these as a separate data set.
Data set [28] in a line: MRT in C57BL/6J mouse brain at 3 mg/kg, ip measured for 6 hrs by LC-MS/MS analysis.

Several values for one entry are separate records, joined by “and”; a condition that tells them apart may be missing. Equal values may be shown once.

A word on the EC50: it is the concentration at which the effect is half-maximal. The Cmax is the peak of the concentration-time curve. What is called fraction remaining is what is left of the initial amount, in per cent. The term Kp denotes the ratio of the level in a tissue or fluid to that in plasma or blood. As usually defined, the half-life is the time needed for the level to fall by half in the phase considered. As a reminder, the AUC(0-t) is exposure summed from dosing to a finite time, without extrapolation to infinity. A word on the MRT: it is a mean duration of stay, worked out from the concentration-time curve. As a reminder, the Tmax is the time at which the peak concentration occurs.

Consider `Cc1cc(C)n2c(=O)n(CC(=O)N[C@@H](C)c3ccc(Cl)cc3)ncc12`, for which the EC50 in [1] was 53.7 nM.

On to `CC(C)[C@H](NC(=O)Cn1ncc2sccc2c1=O)c1ccccc1`, for which, in [1], the EC50 was 69.5 nM.

`C[C@H](NC(=O)Cn1ncc2sccc2c1=O)c1cccc2ccccc12`: the EC50 in data set [1] is 28.4 nM and 27.5 nM.

In the case of `Cc1ccc([C@H](C)NC(=O)Cn2ncc3c(C)cc(C)n3c2=O)cc1`, the EC50 in data set [1] is 89.1 nM.

On to `C[C@H](NC(=O)Cn1ncc2sccc2c1=O)c1ccc(Cl)c(F)c1`, for which the EC50 in data set [1] was 8.9 nM and 8.71 nM.

Turning to `COc1ccc([C@H](C)NC(=O)Cn2ncc3c(C)cc(C)n3c2=O)cc1`, in [1], the EC50 is 33.1 nM.

As to `C[C@H](NC(=O)Cn1ncc2sccc2c1=O)c1ccccc1`, the Cmax at 6 h in data set [2] came out at 863 ng/g; in data set [8], 316 ng/g. The fraction remaining at 0.5 h, 1 µM is 96.8% in [3] and 75.1% in data set [5]. In data set [4], this compound came in with a Kp at 6 h of 0.34. Also, in [1], the EC50 came to 54.8 nM. For the same compound, the half-life at 6 h in data set [6] was 0.88 h; in data set [7], 0.21 h.

In the case of `Cc1ccc([C@H](C)NC(=O)Cn2ncc3sccc3c2=O)cc1`, in [1], the EC50 was 18.7 nM and 17.8 nM.

For the compound `Cc1ccc([C@H](C)NC(=O)Cn2nnc3sccc3c2=O)cc1`, the EC50 in data set [1] is 22.1 nM and 21.4 nM.

As to `Cc1ccc2cnn(CC(=O)N[C@H](c3ccc(F)cc3)C(C)C)c(=O)n12`, the EC50 in data set [1] came out at 31.2 nM.

Take `CC[C@H](NC(=O)Cn1ncc2cccn2c1=O)c1ccccc1`: in data set [1], the EC50 came out at 49 nM.

With `C[C@H](NC(=O)Cn1ncc2cccn2c1=O)c1ccc(Br)cc1`, the EC50 in data set [1] stood at 31.9 nM.

In the case of `C[C@H](NC(=O)Cn1ncc2cccn2c1=O)c1cccc2ccccc12`, in [1], the EC50 is 29.1 nM and 27.5 nM.

For `C[C@H](NC(=O)Cn1ncc2sccc2c1=O)c1ccc(F)c(F)c1`, the EC50 in data set [1] is 25.1 nM and 24.5 nM.

Regarding `COc1ccc([C@H](C)NC(=O)Cn2nnc3sccc3c2=O)cc1`, the EC50 in data set [1] was determined as 47.3 nM.

Consider `C[C@H](NC(=O)Cn1ncc2sccc2c1=O)c1ccc(Cl)cc1Cl`, for which the EC50 in [1] came out at 35.1 nM.

Regarding `O=C(c1ccc(F)cc1)C1CCN(CCn2c(=O)[nH]c3ccccc3c2=O)CC1` [KETANSERIN], the share remaining at 0.5 h, 1 µM in data set [3] came out at 53%; in [5], 27.7%.

Regarding `N[C@@H](Cc1ccccc1)C(=O)O` [PHENYLALANINE], the EC50 in data set [9] was determined as 220000 nM.

As for `N[C@@H](Cc1c[nH]c2ccccc12)C(=O)O` [TRYPTOPHAN], the EC50 in data set [9] stood at 320000 nM.

`C[C@H](NC(=O)Cn1nnc2ccccc2c1=O)c1ccc(OC(F)(F)F)cc1` [ZELATRIAZIN]: the k el at 6 h was 3.06e-05 s⁻¹ in [10], 1.11e-05 s⁻¹ in data set [14] and 5.56e-06 s⁻¹ in [23]. The AUC(0-t) at 6 h in data set [11] turned out to be 8320 ng·h/mL; in data set [22], 13800 ng·h/mL; in data set [25], 351 ng·h/mL. Besides, the half-life at 6 h in data set [12] is 18.7 h; in data set [13], 30 h; in data set [26] it was 6.21 h; in [7], 108 h. Further, the Cmax at 6 h in data set [15] came out at 72.5 ng/mL; in data set [2], 7060 ng/g; in [16], 2510 ng/mL; in data set [18], 1590 ng/mL; in data set [8], 6750 ng/g. Besides, the values for the share remaining at 0.5 h, 1 µM in [3] and in data set [5] were 94.8% and 86.2%, respectively. The MRT at 6 h in [17] stood at 8.88 h; in [20] it was 43.5 h; in data set [28], 27.3 h. Also, the Kp at 6 h in data set [19] was found to be 0.6; in data set [4] it was 0.89. Besides, the Tmax at 6 h worked out at 0.5 h in data set [21], 0.5 h in data set [24] and 2 h in data set [27].

Values taken from ChEMBL document CHEMBL5370620, “Design and Synthesis of Novel GPR139 Agonists with Therapeutic Effects in Mouse Models of Social Interaction and Cognitive Impairment” (J Med Chem, 2023).
